Experiment: Inhibition of recombinant perforin (unknown origin) assessed as decrease in lysis of 51Cr-labelled human Jurkat cells by measuring 51Cr release preincubated for 30 mins followed by cell line addition measured after 4 hrs in presence of 0.1% BSA by gamma counting method

Row | IC50 [µM] | Compound
1 | > 20 | CN1Cc2cc(-c3nc(-c4cncc(NS(=O)(=O)c5ccc(F)cc5F)c4)cs3)ccc2C1=O
2 | > 20 | CN1CCc2cc(-c3ccc(-c4cncc(NS(=O)(=O)c5ccc(F)cc5F)c4)s3)ccc2C1=O

Further lines, the compound ahead of its results:

Row | Compound | IC50 [µM]
3 | CC1c2cc(-c3ccc(-c4cncc(NS(=O)(=O)c5ccc(F)cc5F)c4)s3)ccc2C(=O)N1C (stereo not given) | > 20
4 | O=C1NCCc2ccc(-c3ccc(-c4cncc(NS(=O)(=O)c5ccc(F)cc5F)c4)s3)cc21 | > 20
5 | O=C1NCCc2cc(-c3ccc(-c4cncc(NS(=O)(=O)c5ccc(F)cc5F)c4)s3)ccc21 | > 20

From BindingDB's records for doi:10.1016/j.bmcl.2016.12.057 (University of Auckland, 2017)
